PubChem BioAssay AID2060483 (Molecular Pharmacology Branch, DTP, NCI, 2025)
pIC50: −log10 of the molar value.

System: K24384-001-R-PDC complex spheroids, viability
Test: Anticancer human tumor K24384-001-R-PDC patient-derived pancreatic adenocarcinoma cell line growth inhibition [GQUAD]
Settings: for pIC50: curve of first compound; for viability, T/C: stronger effect = lower value
Outline: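 Multi-cell-type spheroids of tumor cells with HUVEC and mesenchymal stem cells, treated with drug combinations. Concentrations descend in half-log steps from near clinical Cmax, or from 10 microM where Cmax is unknown; viability read-out.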

[1] = second compound 0.0316 µM, first compound 0.0316 µM
[2] = second compound 0.0316 µM, first compound 0.1 µM
[3] = second compound 0.0316 µM, first compound 0.316 µM
[4] = second compound 0.0316 µM, first compound 1 µM
[5] = second compound 0.0316 µM, first compound 3.16 µM
[6] = second compound 0.0316 µM, first compound 10 µM
[7] = second compound 0.1 µM, first compound 0.0316 µM
[8] = second compound 0.1 µM, first compound 0.1 µM
[9] = second compound 0.1 µM, first compound 0.316 µM
[10] = second compound 0.1 µM, first compound 1 µM
[11] = second compound 0.1 µM, first compound 3.16 µM
[12] = second compound 0.1 µM, first compound 10 µM
[13] = second compound 0.316 µM, first compound 0.0316 µM
[14] = second compound 0.316 µM, first compound 0.1 µM
[15] = second compound 0.316 µM, first compound 0.316 µM
[16] = second compound 0.316 µM, first compound 1 µM
[17] = second compound 0.316 µM, first compound 3.16 µM
[18] = second compound 0.316 µM, first compound 10 µM
[19] = second compound 1 µM, first compound 0.0316 µM
[20] = second compound 1 µM, first compound 0.1 µM
[21] = second compound 1 µM, first compound 0.316 µM
[22] = second compound 1 µM, first compound 1 µM
[23] = second compound 1 µM, first compound 3.16 µM
[24] = second compound 1 µM, first compound 10 µM
[25] = second compound 3.16 µM, first compound 0.0316 µM
[26] = second compound 3.16 µM, first compound 0.1 µM
[27] = second compound 3.16 µM, first compound 0.316 µM
[28] = second compound 3.16 µM, first compound 1 µM
[29] = second compound 3.16 µM, first compound 3.16 µM
[30] = second compound 3.16 µM, first compound 10 µM
[31] = second compound 10 µM, first compound 0.0316 µM
[32] = second compound 10 µM, first compound 0.1 µM
[33] = second compound 10 µM, first compound 0.316 µM
[34] = second compound 10 µM, first compound 1 µM
[35] = second compound 10 µM, first compound 3.16 µM
[36] = second compound 10 µM, first compound 10 µM
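Further: spheroids exposed to compounds for seven days.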

Compound `COc1ncnc(C2CC2)c1-c1ncc2cnn(Cc3ccc(-c4nc(C(F)(F)F)cn4C(C)C)cc3)c2n1` + Cc1[nH]c2ccc(F)cc2c1-c1nc2c3cccnc3c3ncccc3c2[nH]1 has a pIC50 (second compound 0.0316 µM) of less than 5.00, a pIC50 (second compound 0.1 µM) of less than 5.00 and a pIC50 (second compound 0.316 µM) of less than 5.00. It also gave a pIC50 (second compound 1 µM) of less than 5.00, a pIC50 (second compound 3.16 µM) of less than 5.00 and a pIC50 (second compound 10 µM) of less than 5.00. It also gave a viability, T/C [1] of 106%, a viability, T/C [2] of 109% and a viability, T/C [3] of 122%. For the same compound, the viability, T/C [4] was 97.5%, the viability, T/C [5] was 104% and the viability, T/C [6] was 128%. For the same compound, the viability, T/C [7] was 98.4%, the viability, T/C [8] was 98.7% and the viability, T/C [9] was 103%. It also gave a viability, T/C [10] of 85.5%, a viability, T/C [11] of 122% and a viability, T/C [12] of 134%. It also gave a viability, T/C [13] of 90.8%, a viability, T/C [14] of 107% and a viability, T/C [15] of 107%. For the same compound, the viability, T/C [16] was 95.6%, the viability, T/C [17] was 96.7% and the viability, T/C [18] was 118%. The viability, T/C [19] was 86.3%, the viability, T/C [20] was 96.8% and the viability, T/C [21] was 95.8%. The viability, T/C [22] was 104%, the viability, T/C [23] was 95.2% and the viability, T/C [24] was 95.7%. The viability, T/C [25] was 81.8%, the viability, T/C [26] was 89.3% and the viability, T/C [27] was 73.2%. For the same compound, the viability, T/C [28] was 88.7%, the viability, T/C [29] was 95.1% and the viability, T/C [30] was 84.1%. It also gave a viability, T/C [31] of 72.5%, a viability, T/C [32] of 102% and a viability, T/C [33] of 64.3%. The viability, T/C [34] was 73.1%, the viability, T/C [35] was 96.1% and the viability, T/C [36] was 75.5%.

`CC(C)n1c(=O)n(C)c2cnc3cc(F)c(-c4ccc(OCCCN5CCCCC5)nc4)cc3c21` + Cc1cnc(CNC(=O)c2c(=O)c3ccc(N4CCCN(C)CC4)nc3n3c2sc2ccccc23)cn1 gave a pIC50 (second compound 0.0316 µM) of less than 5.00, a pIC50 (second compound 0.1 µM) of less than 5.00 and a pIC50 (second compound 0.316 µM) of less than 5.00. The pIC50 (second compound 1 µM) was 5.73, the pIC50 (second compound 3.16 µM) was greater than 7.50 and the pIC50 (second compound 10 µM) was greater than 7.50. The viability, T/C [1] was 68.1%, the viability, T/C [2] was 77% and the viability, T/C [3] was 76.9%. The viability, T/C [4] was 92.9%, the viability, T/C [5] was 99.9% and the viability, T/C [6] was 87.7%. The viability, T/C [7] was 70.1%, the viability, T/C [8] was 84.2% and the viability, T/C [9] was 67.1%. For the same compound, the viability, T/C [10] was 80.6%, the viability, T/C [11] was 83.5% and the viability, T/C [12] was 69.3%. The viability, T/C [13] was 60.3%, the viability, T/C [14] was 81.4% and the viability, T/C [15] was 55%. It also gave a viability, T/C [16] of 62%, a viability, T/C [17] of 71.2% and a viability, T/C [18] of 52%. For the same compound, the viability, T/C [19] was 48.1%, the viability, T/C [20] was 52% and the viability, T/C [21] was 57.7%. For the same compound, the viability, T/C [22] was 51.4%, the viability, T/C [23] was 54.6% and the viability, T/C [24] was 41.5%. The viability, T/C [25] was 44.4%, the viability, T/C [26] was 46% and the viability, T/C [27] was 46.2%. For the same compound, the viability, T/C [28] was 58.4%, the viability, T/C [29] was 42% and the viability, T/C [30] was 49.7%. The viability, T/C [31] was 39%, the viability, T/C [32] was 19.4% and the viability, T/C [33] was 39.9%. The viability, T/C [34] was 46.8%, the viability, T/C [35] was 32.8% and the viability, T/C [36] was 0.33%.
